Results taken from ChEMBL document CHEMBL1201862, “PubChem BioAssay data set” (2004).
Values joined by “and” are separate entries in the source; they are usually repeats but may differ in a detail not shown here. Identical values can stand only once.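 In this assay, cells in 96-well plates receive the compound at five concentrations for 48 hours. Endpoints are linearly interpolated between the surrounding concentrations. Abbreviation: GI50, concentration required for 50% inhibition of growth.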 Active and inactive are the calls of the source. No stated cut-off is given here; in the data, active = GI50 up to about 1.1 µM and inactive = higher.

Legend:
Test in all cases: NCI anticancer screen, dose series, 48 h
HCT-15 = system: HCT-15
OVCAR-4 = system: OVCAR-4
SF-268 = system: SF-268
SF-295 = system: SF-295
SR = system: SR
SNB-78 = system: SNB-78
NCI-H460 = system: NCI-H460
786-0 = system: 786-0
EKVX = system: EKVX
COLO 205 = system: COLO 205
HCC 2998 = system: HCC 2998
NCI-H23 = system: NCI-H23
SK-MEL-2 = system: SK-MEL-2
KM-20L2 = system: KM-20L2
KM12 = system: KM12
SK-MEL-5 = system: SK-MEL-5
IGROV-1 = system: IGROV-1
SW-620 = system: SW-620
Malme-3M = system: Malme-3M
M19-MEL = system: M19-MEL
A549 = system: A549
HT-29 = system: HT-29
UACC-257 = system: UACC-257
HOP-62 = system: HOP-62
OVCAR-8 = system: OVCAR-8
UACC-62 = system: UACC-62
SF-539 = system: SF-539
HCT-116 = system: HCT-116
LOX IMVI = system: LOX IMVI
NCI-H226 = system: NCI-H226
OVCAR-5 = system: OVCAR-5
MOLT-4 = system: MOLT-4
SK-MEL-28 = system: SK-MEL-28
CCRF-CEM = system: CCRF-CEM
UO-31 = system: UO-31
SNB-19 = system: SNB-19
RXF 393 = system: RXF 393
HOP-92 = system: HOP-92
M14 = system: M14
DMS-114 = system: DMS-114
RPMI-8226 = system: RPMI-8226
SK-OV-3 = system: SK-OV-3
K562 = system: K562
OVCAR-3 = system: OVCAR-3
DMS-273 = system: DMS-273
SNB-75 = system: SNB-75
A498 = system: A498
NCI-H522 = system: NCI-H522
HL-60 = system: HL-60
ACHN = system: ACHN
SN12C = system: SN12C
TK-10 = system: TK-10
U-251 = system: U-251
CAKI-1 = system: CAKI-1
LXFL 529 = system: LXFL 529
PC-3 = system: PC-3
NCI/ADR-RES = system: NCI/ADR-RES
DU-145 = system: DU-145
MDA-MB-231 = system: MDA-MB-231
T47D = system: T47D
BT-549 = system: BT-549
MDA-N = system: MDA-N
MCF7 = system: MCF7
MDA-MB-435 = system: MDA-MB-435
Hs-578T = system: Hs-578T

Measured: GI50

N#CC1(N2CCCC2)CCC2(CC1)OCCO2
inactive: OVCAR-4 > 100 µM | SF-268 > 100 µM | SF-295 > 100 µM | SR > 100 µM | SNB-78 > 100 µM | NCI-H460 > 100 µM | 786-0 > 100 µM | EKVX > 100 µM | COLO 205 > 10 µM | HCC 2998 > 100 µM | NCI-H23 > 100 µM | SK-MEL-2 > 100 µM | KM-20L2 > 100 µM | KM12 > 100 µM | SK-MEL-5 > 100 µM | IGROV-1 > 100 µM | SW-620 > 100 µM | Malme-3M > 100 µM | M19-MEL > 10 µM | A549 > 100 µM | HT-29 > 100 µM | UACC-257 > 100 µM | HOP-62 > 100 µM | OVCAR-8 > 100 µM | UACC-62 > 100 µM | SF-539 > 100 µM | HCT-116 > 100 µM | LOX IMVI > 100 µM | NCI-H226 > 100 µM | OVCAR-5 > 100 µM | MOLT-4 > 100 µM | SK-MEL-28 > 100 µM | CCRF-CEM > 100 µM | UO-31 > 100 µM | SNB-19 > 100 µM | RXF 393 > 100 µM | HOP-92 > 100 µM | M14 > 100 µM | DMS-114 > 100 µM | RPMI-8226 > 100 µM | SK-OV-3 > 100 µM | K562 > 100 µM | OVCAR-3 > 100 µM | DMS-273 > 10 µM | SNB-75 > 100 µM | A498 > 100 µM | NCI-H522 > 100 µM | HL-60 > 100 µM | ACHN > 100 µM | SN12C > 100 µM | TK-10 > 100 µM | U-251 > 100 µM | CAKI-1 > 100 µM
> 100 µM: HCT-15

CCCSc1nc(-c2ccc(OC)cc2)c(C#N)c(=O)n1C1OC(COC(C)=O)C(OC(C)=O)C(OC(C)=O)C1OC(C)=O (stereo not drawn)
inactive: OVCAR-4 > 100 µM | SF-268 > 100 µM | SR > 100 µM | SNB-78 99.3 µM | NCI-H460 > 100 µM | COLO 205 > 100 µM | NCI-H23 > 100 µM | SK-MEL-2 > 100 µM | KM-20L2 > 100 µM and 54.6 µM | KM12 > 100 µM | M19-MEL > 100 µM | HT-29 > 100 µM and 65.9 µM | LXFL 529 > 100 µM | UACC-62 > 100 µM | SF-539 > 100 µM | MOLT-4 > 100 µM | SK-MEL-28 > 100 µM | CCRF-CEM > 100 µM | DMS-114 > 100 µM | RPMI-8226 > 100 µM | SK-OV-3 > 100 µM | K562 > 100 µM | SNB-75 42.3 µM | NCI-H522 > 100 µM | HL-60 > 100 µM | ACHN > 100 µM

CC(C)(C)[Si](C)(C)OCC1C=CC(n2cnc3c(N)ncnc32)O1 (stereo not drawn)
53.1 µM: HCT-15
inactive: OVCAR-4 32.9 µM | SF-268 83.2 µM | SF-295 55.2 µM | PC-3 39.8 µM | SR 15.1 µM | NCI-H460 > 100 µM | 786-0 61.2 µM | EKVX > 59.8 µM | COLO 205 > 73.1 µM | NCI/ADR-RES 34.2 µM | HCC 2998 > 100 µM | NCI-H23 39.1 µM | SK-MEL-2 39.4 µM | KM12 59.2 µM | SK-MEL-5 15.4 µM | IGROV-1 46.6 µM | SW-620 21 µM | Malme-3M 61.1 µM | A549 > 100 µM | HT-29 53.5 µM | UACC-257 36 µM | HOP-62 69.8 µM | DU-145 64.3 µM | OVCAR-8 42.6 µM | UACC-62 44.5 µM | SF-539 > 47.4 µM | HCT-116 20.1 µM | LOX IMVI 23 µM | NCI-H226 19.2 µM | OVCAR-5 72.8 µM | MOLT-4 10.1 µM | SK-MEL-28 > 62.1 µM | CCRF-CEM 8.32 µM | UO-31 52 µM | MDA-MB-231 44.2 µM | SNB-19 94.2 µM | RXF 393 24.1 µM | T47D 20.6 µM | HOP-92 9.04 µM | M14 23.8 µM | RPMI-8226 16.7 µM | SK-OV-3 81.1 µM | BT-549 24.7 µM | K562 9.1 µM | MDA-N 26.6 µM | OVCAR-3 24.1 µM | SNB-75 16.6 µM | A498 > 79.3 µM | NCI-H522 33.2 µM | MCF7 30.1 µM | MDA-MB-435 22.3 µM | Hs-578T 47.2 µM | HL-60 9.02 µM | ACHN > 100 µM | SN12C 35.9 µM | TK-10 > 100 µM | U-251 32.1 µM | CAKI-1 > 100 µM

O=C(CCl)Nc1ccc(-c2nc3ccccc3s2)cc1
active: LOX IMVI 0.847 µM | CCRF-CEM 0.94 µM | MCF7 0.184 µM
inactive: OVCAR-4 3.37 µM | SF-268 2.81 µM | SF-295 6.92 µM | PC-3 2.56 µM | SR 1.46 µM | NCI-H460 2.84 µM | 786-0 2 µM | EKVX 6.97 µM | COLO 205 2.07 µM | NCI/ADR-RES 4.59 µM | HCC 2998 2.51 µM | NCI-H23 2.96 µM | SK-MEL-2 2.65 µM | KM12 3.3 µM | SK-MEL-5 1.6 µM | IGROV-1 1.34 µM | SW-620 2.21 µM | Malme-3M 2.07 µM | A549 10 µM | HT-29 2.39 µM | UACC-257 5.66 µM | HOP-62 3.72 µM | DU-145 10.4 µM | OVCAR-8 2.59 µM | UACC-62 2.22 µM | SF-539 3.04 µM | HCT-116 2.16 µM | NCI-H226 1.43 µM | OVCAR-5 5.82 µM | MOLT-4 1.74 µM | SK-MEL-28 4.12 µM | UO-31 13 µM | MDA-MB-231 3.07 µM | SNB-19 2.4 µM | RXF 393 3.43 µM | T47D 1.53 µM | HOP-92 2.36 µM | M14 1.97 µM | RPMI-8226 2.26 µM | SK-OV-3 4.78 µM | BT-549 1.6 µM | K562 1.91 µM | MDA-N 2.49 µM | OVCAR-3 1.82 µM | SNB-75 4.06 µM | A498 6.82 µM | NCI-H522 1.77 µM | MDA-MB-435 4.03 µM | Hs-578T 5.96 µM | HL-60 1.91 µM | ACHN 5.28 µM | SN12C 1.87 µM | TK-10 15.7 µM | U-251 1.64 µM | CAKI-1 1.74 µM
2.18 µM: HCT-15
